Measured values reported in patent publication EP1228058B1, “BENZOPYRANYL GUANIDINE DERIVATIVES, PROCESS FOR PREPARATION THEREOF, AND PHARMACEUTICAL COMPOSITIONS CONTAINING THEM” (Dongbu Hannong Chemical Co., Ltd., priority 1999, dated 2001).
pIC50: −log10 of the molar value.

Assays:
A7r5 = assay: Inhibition of intracellular ROS induced by H2O2 (H2DCFDA) in A7r5; type: cell-based; conditions: Rattus norvegicus
Procedure: Measurement of intracellular ROS (Reactive Oxygen Species) was determined using H2DCFDA (2',7'-dichlorodihydrofluorescein diacetate, Molecular Probes, Eugene, OR, USA). H2DCFDA is a non-polar compound that readily diffused into cells, where it is hydrolyzed by intracellular esterase to polar derivative H2DCF (2',7'-dichlorodihydrofluorescein) which can not cross the cell membrane, and thereby trapped within the cell. H2DCF is low-fluorescent, but converted to high-fluorescent DCF (2',7'-dichlorofluorescein) by intracellular ROS. Therefore, the intracellular ROS formation can be determined from the amount of converted DCF. HUVEC (Human umbilical Vascular Endothelial Cells) or A7r5 (Rat thoracic aorta smooth muscle cells) were used. HUVEC were cultured in Kaighn's F12K medium supplemented with 10% heat-inactivated FBS, 0.1 mg/ml heparin sodium, 0.03-0.05 mg/ml ECGS (Endothelial cell growth supplement) and 1% antibiotics, and A7r5 were cultured in DMEM supplemented with 10% heat inactivated FBS and 1% antibiotics. To measure the intracellular ROS, HUVEC or A7r5 were preincubated for 30 min in the presence of test compounds (10^-7-10^-5 M). Thereafter, cells were stimulated with H2O2 (10^-6 and 10^-5 M for 20 min), and then incubated in the dark for 2 hr at 37 °C in 50 mM phosphate buffer (pH 7.4) containing 5 uM H2DCFDA. The quantity of DCF fluorescence (485 nm excitation, 530 nm emission) was measured using Fluorescence plate reader (FL600, Biotek Instruments).

[1] = system: ischemic heart models of rats; assay: Heart protective (anti-ischemic) activity in ischemic heart models of anesthetized rats; type: in vivo; conditions: 45 min occlusion, 90 min reperfusion
Procedure: Male rats (350-450 g, obtained from the Experimental Animal Team of the Korea Research Institute of Chemical Technology) were anesthetized by the intraperitoneal injection of pentobarbital at a dose of 75 mg/kg. After trachetomy, the rats were rendered to respire artificially at a rate of 60/min with a stroke volume of 10 ml/kg. Cannulars were inserted into the fermoral vein and the fermoral artery and used for drug administration and blood pressure measurement, respectively.
In the ischemic myocardium damage models, the body temperature has an important influence on the results. To avoid the change in the body temperature, a body temperature measuring probe was inserted into the rectum of each rat and the body temperature was constantly kept at 37 °C with the aid of a homeothermic blanket control unit.
Afterwards, during testing, a continuous measurement was made of the mean arterial blood pressures and heart rates from the rats. For the measurement of the blood pressure, a pressure transducer, such as that manufactured by Grass Ins., MA, U.S.A., identified as Model Statham P23XL, was used. The heart rate was measured by a tachometer, such as that manufactured by Gould Inc., OH, U.S.A., identified as Biotachometer. In addition, all of the changes occurring were continuously recorded through the Gould 2000 chart recorder, manufactured by Gould Inc.
The left coronary artery was occluded according to the Selye H. method as follows. The rats underwent a left thoracotomy operation for partial opening of the chest and the right-side chest was pressurized by the middle finger of the left hand to push the heart out. Immediately after the left anterior descending coronary artery hereinafter referred to as (LAD) was carefully stitched using a suture needle with 5-0 silk ligature, the heart was then repositioned in the thoracic cavity while both ends of the ligature were situated outside. The opposite ligature ends were passed through a PE tube (PE100, 2.5 cm) and allowed to stand loose for 20 min for stabilization. Via the cannula inserted into the femoral vein, vehicles or drugs were administered into the rats which were rendered to stand for 30 min in order to sufficiently elicit the efficacies of the drugs. BMS-180448 was used as a control drug and the i.v.administration dose was 0.3 mg/kg for all test drugs of interest and the control drug.
Next, the PE tube which had the doubled strands of the ligature passed therethrough was pushed toward the heart and then, set upright by tightly pulling end regions of the ligature with a hemostatic pincette while pressing the coronary artery. The PE tube was allowed to stand for 45 min for the occlusion of the coronary artery, followed by the removal of the hemostatic pincette and then, by the reperfusion for 90 min.
After the reocclusion of the coronary artery in accordance with the above procedure, the rats were administered with 2 ml of a 1% Evans blue through an intravenous route. Subsequently, an excess of pentobarbital was intravenously injected to kill the rats, after which the heart was removed and then, deprived of the right ventricle and both atria. The left ventricle was cut horizontally to the heart apex into 5 or 6 slices which were weighed. From the surface of each slice, images were input with the aid of a Hi-scope into a computer installed with an image analyzing program (Image Pro Plus). From the images input into the computer, the area of the normal blood stream tissue region which appeared blue in a computer monitor and the area which appeared colorless were measured. The percentage of the colorless area to the total area of each slice was calculated and multiplied by the weight of each slice to determine the area at risk (AAR) of each slice. […]

[2] = Acute oral toxicity test in rats; conditions: rat, in vivo, single oral dose in 0.5% methyl cellulose, read-out: lethal dose (LD50) for oral administration
Procedure: In this test six-week old SPF SD rats were used with two rats assigned to each group. The compounds of examples 1, 2, 3, 5, 7, 8, 9, 10, 13, 14, 15, 19, 22, 23, 24, 25, 26, 28, 29, 30, 31, 32, 33, 34, 35, 36, 37, 38, 39, 40, 41, 44, 46, 47, 48, 49, 51, 52, 57, 58, 60, 62, 64, 67, 68, 69, 71 and 72 were suspended in 0.5% methyl cellulose, respectively, and administered orally at a single dose of 1 g/kg using a ball-tipped needle. The dosing volume was 10 ml/kg. […] All survivors at the end of the observation period underwent laparotomy under ether anesthesia and the blood samples were taken from the abdominal aorta for hematological tests and biochemical analysis. After sacrificing the animals, autopsy was performed for macroscopic observation of the organs and tissues. Tissue samples of vital organs from macroscopic legion were removed and fixed in 10% neutral buffered formalin solution, then processed by standard procedures for histopathology and examined under light microscope. There were no significant changes in clinical symptoms, body weight and mortalities. Also in hematology, serum chemistry parameters and macroscopic observation, no drug-related changes were observed.

rat aorta = assay: Vasodilation effects on isolated blood vessels of rats (methoxamine-constricted aortic rings); type: cell-based; conditions: isolated rat aorta constricted with methoxamine (3 uM); read-out: Vasodilation Activity (in Vitro, rat aorta) (IC50)
Excerpt: Male Sprague-Dawly rats (350-450 g, obtained from the Experimental Animal Team of the Korea Research Institute of Chemical Technology) were knocked unconscious by hitting the occipital region, sacrificed by cervical dislocation, and underwent thoracotomy. After being quickly removed, the thoracic aorta was deprived of the adipose tissue and cut into aortic rings of 3 mm width. The aorta was lightly rubbed with a modified Krebs Henseleit buffer (Physiological Salt Solution, PSS) soaked cotton club to remove the inner epithelial layer therefrom. While being suspended in an organ bath containing a physiological buffer, the vascular tissue was allowed to equilibrate under a resting tension of 2 g and then, stand for 1 hour at 37 °C for stabilization with a supply of a carbogen consisting of 95% O2-5% CO2.
Thereafter, the vascular tissue was constricted with 10^-5 M phenylephrine and washed several times with PSS and this procedure was repeated again to ensure the stable reacivity of vascular smooth muscle to repetitive constriction/dilatation.
In addition, 3x10^-6 M methoxamine was used to induce an intensive constriction in the vascular smooth muscle. When the vasoconstriction induced by the methoxamine reached and maintained a maximum, test compounds and controls were cumulatively added to the organ baths in concentrations of 1, 3, 10 and 30 uM so as to induce vasodilatation. As for the controls, they were Cromakalim and BMS-180448 (the compounds of the chemical formula 2), both known to be the first generation KATP activator with potent vasodilatation and cardioprotection effects.
Following the addition of the drugs, the change in the maximal constriction induced by methoxamine was calculated to plot a concentration-dilation response curve. Through a linear regression analysis, IC50, the drug concentration at which the vascular tissue is 50% dilated, was obtained for each drug.

HUVEC = assay: Inhibition of HUVEC tube formation on Matrigel; type: cell-based, Human; design: key: -: no effect; +/-: week effect; +: moderate effect; ++: strong effect
Procedure: HUVEC (Human umbilical vein endothelial cells, ATCC CRL-1730) were cultured, and tubulogenesis was induced in vascular endothelial cells by plating them onto the surface of Matrigel for several hours. The effects on tube formation of the test compounds were compared with the vehicle treated controls, then confirmed their in vitro anti-angiogenic effect indirectly.

[3] = system: angiogenesis induced by Angiotensin II in Sprague-Dawley rats; assay: Suppression of Angiotensin II induced angiogenesis in implanted sponge (99mTc-DTPA clearance); type: in vivo; conditions: Control AII (100nmol) alone, no test drug

CC(C)(Sc1cc(C(C)(C)C)c(O)c(C(C)(C)C)c1)Sc1cc(C(C)(C)C)c(O)c(C(C)(C)C)c1 [Probucol, reference compound]
inhibition at 10 µM (A7r5; A7r5, Conc. 10^-5 M, read-out: Inhibition (%) H2O2 (10^-6M)): 185%
inhibition at 1 µM (A7r5; A7r5, Conc. 10^-6 M): 184%
inhibition at 0.1 µM (A7r5; A7r5, Conc. 10^-7 M, read-out: Inhibition (%) H2O2 (10^-6M)): 72%

COC(OC)[C@@]1(C)Oc2ccc(NC(C)=O)cc2[C@@H](NC(=NC#N)NCc2ccccc2)[C@@H]1O [Example 41]
Anti-ischemic Activity (in vivo, rats) (0.3 mg/kg i.v.) IZ/AAR (%) [1]: 30.25%
LD50 [2]: > 1000 mg/kg
pIC50 (rat aorta): < 4.52

COC(OC)[C@@]1(C)Oc2ccc([N+](=O)[O-])cc2[C@@H](NC(=NC#N)NCc2cccc([N+](=O)[O-])c2)[C@@H]1O [Example 52, (2S, 3S, 4R)-N''-cyano-N-(6-nitro-3,4-dihydro-3-hydroxy-2-methyl-2-dimethoxymethyl-2H-benzopyran-4-yl)-N'-(3-nitrobenzyl)guanidine]
Inhibitory Effects on Tube Formation (HUVEC; 10 uM): +/-
Inhibitory Effects on Tube Formation (HUVEC; 100 uM): ++
LD50 [2]: > 1000 mg/kg

COC(OC)[C@]1(C)Oc2ccc([N+](=O)[O-])cc2[C@@H](NC(=NC#N)Nc2ccc(Cl)cc2)[C@@H]1O [Example 2, (2R, 3S, 4R)-N''-cyano-N-(6-nitro-3,4-dihydro-3-hydroxy-2-methyl-2-dimethoxymethyl-2H-benzopyran-4-yl)-N'-(4-chlorophenyl)guanidine]
Inhibitory Effects on Tube Formation (HUVEC; 10 uM): +
Inhibitory Effects on Tube Formation (HUVEC; 100 uM): ++
LD50 [2]: > 1000 mg/kg

Angiotensin II [AII, reference compound]
Clearance of ^99mTC (%) [3]: 44.71%

COC(OC)[C@@]1(C)Oc2ccc([N+](=O)[O-])cc2[C@@H](NC(=NC#N)Nc2cccc(C(F)(F)F)c2)[C@@H]1O [Example 15, (2S, 3S, 4R)-N''-cyano-N-(6-nitro-3,4-dihydro-3-hydroxy-2-methyl-2-dimethoxymethyl-2H-benzopyran-4-yl)-N'-(3-trifluoromethylphenyl)guanidine]
LD50 [2]: > 1000 mg/kg
pIC50 (rat aorta): 4.85

CC1(C)Oc2ccc(C#N)cc2C(N2CCCC2=O)C1O (stereo not shown) [Cromakalim, reference compound]
pIC50 (rat aorta): 7.17

COC(OC)[C@@]1(C)Oc2ccc([N+](=O)[O-])cc2[C@H](NC(=NC#N)Nc2ccc(Cl)cc2)[C@H]1O [Example 10, (2S, 3R, 4S)-N''-cyano-N-(6-nitro-3,4-dihydro-3-hydroxy-2-methyl-2-dimethoxymethyl-2H-benzopyran-4-yl)-N'-(4-chlorophenyl)guanidine]
Inhibitory Effects on Tube Formation (HUVEC; 10 uM): +
Inhibitory Effects on Tube Formation (HUVEC; 100 uM): ++
LD50 [2]: > 1000 mg/kg
